Publication PMC13327496, “The X‐Ray Crystal Structure of BorF, the Flavin Reductase Subunit of a Two‐Component Flavin‐Dependent Tryptophan Halogenase” (Proteins, 2026)
Each block holds one compound with its values, some of them ahead of it.

Key:
BorF = biological target: T1, BorF (uncultured bacterium, UniProt M9QXS1); assay: NADH depletion at […] nm; type: biochemical; settings: 25 mM HEPES pH 7.5, room temperature
T1 construct: full-length residues 1-196 plus an N-terminal Pro after PreScission cleavage; His6-MBP tag removed; synthetic gene, E. coli Rosetta2(DE3) pLysS; homodimer
T1 sequence (M9QXS1 1-196): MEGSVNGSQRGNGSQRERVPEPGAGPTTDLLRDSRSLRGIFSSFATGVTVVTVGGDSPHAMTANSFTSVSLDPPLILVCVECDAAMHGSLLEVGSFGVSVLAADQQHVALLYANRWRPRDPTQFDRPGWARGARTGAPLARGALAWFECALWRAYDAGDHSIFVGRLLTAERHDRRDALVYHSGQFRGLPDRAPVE

[1] = biological target: BorF (soil bacterial metagenome from the Anza-Borrego desert); assay: SEC; BorF alone after tag cleavage, Superdex 200, 20 mM Tris pH 7.5, 150 mM NaCl; single peak at 78.2 mL

Compound: Cc1cc2nc3c(=O)[nH]c(=O)nc-3n(C[C@H](O)[C@H](O)[C@H](O)COP(=O)(O)O)c2cc1C [FMN]
NADH depletion at 340 nm (BorF; apo-BorF, 25 μM FMN, 100 μM NADH): BorF utilizes FAD as a substrate but is also able to reduce FMN and riboflavin

Compound: NC(=O)C1=CN([C@@H]2O[C@H](COP(=O)(O)OP(=O)(O)OC[C@H]3O[C@@H](n4cnc5c(N)ncnc54)[C@H](O)[C@@H]3O)[C@@H](O)[C@H]2O)C=CC1 [NADH]
NADH depletion at 340 nm (BorF; apo-BorF 0.2 μM, 25 μM FAD): BorF oxidizes NADH to NAD^+, as determined by NADH depletion monitored by absorbance

stoichiometry N [1]: 2
Compound: BorF (enzyme)
